Where “and” joins values, the source holds several entries; their conditions need not be identical. Identical values can stand only once. Entries after “also recorded” stand apart in the source; their conditions may differ. Like-named read-outs stand apart in the source and are kept apart here. One block for each molecule: values may come before it.
Legend:
[1] = biological target: T1, novel, non-AT1, non-AT2 angiotensin binding site (neurolysin) (Rattus norvegicus, UniProt P42676); conditions: cited from earlier work
[2] = biological target: T1, novel, non-AT1, non-AT2 angiotensin binding site (neurolysin); assay: Unmasking of specific 125I-SI Ang II binding in membranes
[3] = biological target: T1, novel, non-AT1, non-AT2 angiotensin binding site (neurolysin); assay: Inhibition or enhancement of PCMB-unmasked 125I-SI Ang II binding in membranes
neurolysin = conditions: cited from earlier work
Sprague-Dawley rats = assay: Drinking test after icv Ang II with or without HgCl2; format: in vivo, rat; conditions: ICV 200 pmoles HgCl2 with 100 pmoles Ang II; water intake over 30 min
liver AT1 receptors = liver AT1 receptors (Rattus norvegicus, UniProt P25095); format: binding; conditions: for Kd of 125I-SI Ang II binding: liver
thimet oligopeptidase = conditions: cited from earlier work
[4] = brain and testis, ~100 μM primary screening or range of concentrations
[5] = 100 μM test compound, 100 μM PCMB, brain and testis

Sequence of liver AT1 receptors (P25095 whole entry): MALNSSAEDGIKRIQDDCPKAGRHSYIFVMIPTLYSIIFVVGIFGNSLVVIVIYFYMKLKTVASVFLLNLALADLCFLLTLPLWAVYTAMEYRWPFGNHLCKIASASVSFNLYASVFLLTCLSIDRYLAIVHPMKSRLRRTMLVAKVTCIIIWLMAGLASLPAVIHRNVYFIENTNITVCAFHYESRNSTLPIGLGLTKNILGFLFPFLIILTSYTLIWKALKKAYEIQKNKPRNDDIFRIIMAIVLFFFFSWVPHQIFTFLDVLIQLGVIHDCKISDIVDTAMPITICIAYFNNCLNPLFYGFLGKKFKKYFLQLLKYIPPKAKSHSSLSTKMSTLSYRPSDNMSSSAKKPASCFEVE
T1 sequence (P42676 38-704): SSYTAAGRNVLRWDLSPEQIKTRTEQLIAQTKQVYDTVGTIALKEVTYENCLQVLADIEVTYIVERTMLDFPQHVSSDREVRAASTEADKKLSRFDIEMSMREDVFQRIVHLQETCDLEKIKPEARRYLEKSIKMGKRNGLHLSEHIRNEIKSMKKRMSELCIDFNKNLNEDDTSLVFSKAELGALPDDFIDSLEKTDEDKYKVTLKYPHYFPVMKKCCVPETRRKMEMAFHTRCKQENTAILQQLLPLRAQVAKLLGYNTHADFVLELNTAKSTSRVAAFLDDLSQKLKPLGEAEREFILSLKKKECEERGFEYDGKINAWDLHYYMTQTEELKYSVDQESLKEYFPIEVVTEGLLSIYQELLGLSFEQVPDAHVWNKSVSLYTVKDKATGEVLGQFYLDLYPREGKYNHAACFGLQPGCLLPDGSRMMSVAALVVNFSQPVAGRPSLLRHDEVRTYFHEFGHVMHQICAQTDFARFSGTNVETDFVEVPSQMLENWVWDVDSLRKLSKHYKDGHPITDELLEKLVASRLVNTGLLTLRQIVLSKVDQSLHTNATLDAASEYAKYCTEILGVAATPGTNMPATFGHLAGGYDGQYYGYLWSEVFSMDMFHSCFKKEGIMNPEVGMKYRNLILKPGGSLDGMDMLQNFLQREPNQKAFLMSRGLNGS

Structure (SMILES): OCCS [2-mercaptoethanol, 2-mercaptoethanol]
- reversal of PCMB unmasking of Ang II binding (in words) [1]: reversed

- unmasking of specific 125I-SI Ang II binding in the absence of PCMB (in words) [2, 4]: did not promote
Structure (SMILES): O=C(O)c1ccc(O)cc1 [4-hydroxybenzoic acid]

Structure (SMILES): O=C(O)c1cc[c]([Hg][OH])cc1 [4-hydroxymercuribenzoate, 4-hydroxymercuribenzoic acid]
- inhibition of PCMB-unmasked 125I-SI Ang II binding, primary screening (in words) [3]: moderately inhibited
- unmasking of specific 125I-SI Ang II binding in the absence of PCMB (in words) [2]: unmasked non-AT1, non-AT2 binding independent of PCMB; also recorded: partial unmasking; also recorded: capable of fully unmasking
- concentration for optimal (peak) unmasking of 125I-SI Ang II binding ([2]; brain and testis): ~ 300 μM
- concentration for optimal (peak) unmasking of 125I-SI Ang II binding ([2]; brain and testis, listed as 4-OH Hg bza): 300 µM

Structure (SMILES): O=[N+]([O-])[O-].[Ag+] [AgNO3, silver nitrate]
- inhibition of PCMB-unmasked 125I-SI Ang II binding, primary screening (in words) [3]: significantly reduced; also recorded: substantially inhibited
- IC50's for inhibition of 125I-SI Ang II binding ([3]; brain and testis, 100 μM PCMB): 1000 to 20000 nM
- IC50 for inhibition of 125I-SI Ang II binding ([3]; brain, 100 μM PCMB): 1770 nM
- IC50 for inhibition of 125I-SI Ang II binding ([3]; testis, 100 μM PCMB): 21300 nM

Structure (SMILES): O[C@@H](CS)[C@@H](O)CS [DTT]
- reversal of PCMB unmasking of Ang II binding (in words) [1]: reversed
- inhibition of the enzymatic activity of neurolysin (in words) (neurolysin): can be inhibited

- effect on 125I-SI Ang II binding in the presence of PCMB (in words) ([3]; 100 μM, brain and testis): enhanced
- Rmax for enhancement of specific 125I-SI Ang II binding in the presence of PCMB ([3]; brain, 100 μM PCMB): 163±56%
- Rmax for enhancement of specific 125I-SI Ang II binding in the presence of PCMB ([3]; testis, 100 μM PCMB): 442±340%
- unmasking of specific 125I-SI Ang II binding in the absence of PCMB (in words) [2, 4]: unable to unmask
Structure (SMILES): Cc1cc(-c2ccc(/N=N/c3ccc4c(S(=O)(=O)O)cc(S(=O)(=O)O)c(N)c4c3O)c(C)c2)ccc1/N=N/c1ccc2c(S(=O)(=O)O)cc(S(=O)(=O)O)c(N)c2c1O [Evans blue]

Structure (SMILES): [Cl][Hg][Cl] [HgCl2, mercuric chloride]
- inhibition of PCMB-unmasked 125I-SI Ang II binding, primary screening (in words) [3]: significantly reduced; also recorded: substantially inhibited
- IC50's for inhibition of 125I-SI Ang II binding ([3]; brain and testis, 100 μM PCMB): 1000 to 20000 nM
- IC50 for inhibition of 125I-SI Ang II binding ([3]; brain, 100 μM PCMB): 14300 nM
- IC50 for inhibition of 125I-SI Ang II binding ([3]; testis, 100 μM PCMB): 11000 nM
- effect on dipsogenic response to Ang II (in words) (Sprague-Dawley rats): lack of effect; also recorded: did not affect
- Bmax of 125I-SI Ang II binding (liver AT1 receptors): 20.8±1.8 and 20.6±2.4 and 20.4±4.4
- effect on 125I-SI Ang II binding to AT1 receptors (in words) (liver AT1 receptors): lack of effect; also recorded: did not impair
- Kd of 125I-SI Ang II binding (liver AT1 receptors; 10 μM HgCl2): 2.93±0.40
- Kd of 125I-SI Ang II binding (liver AT1 receptors; 30 μM HgCl2): 2.41±0.46
- Kd of 125I-SI Ang II binding (liver AT1 receptors; 100 μM HgCl2): 3.15±1.1

Structure (SMILES): O=C(O)c1cc[c]([Hg][Cl])cc1 [PCMB, parachloromercuribenzoic acid]
- concentration for optimal (peak) unmasking of 125I-SI Ang II binding ([2]; brain and testis): 100 to 300 µM
- unmasking of Ang II binding to thimet oligopeptidase (in words) (thimet oligopeptidase): does not unmask

Structure (SMILES): O=[N+]([O-])[O-].[Na+] [Sodium nitrate]
- inhibition of PCMB-unmasked 125I-SI Ang II binding, primary screening (in words) [3]: did not show any inhibition

- inhibition of PCMB-unmasked 125I-SI Ang II binding, primary screening (in words) [3, 5]: did not inhibit
Structure (SMILES): NCCCNCCS [WR-1065]

- inhibition of PCMB unmasking of 125I-SI Ang II binding, primary screening [3, 5]: more than 50%
- inhibition in secondary screening ([3]; at or above 100 μM, 100 μM PCMB, data not shown): < 50%
Structure (SMILES): NCCCNCCSP(=O)(O)O [amifostine]

Structure (SMILES): NCCS [cysteamine]
- inhibition of PCMB unmasking of 125I-SI Ang II binding, primary screening [3, 5]: more than 50%
- IC50 for inhibition of 125I-SI Ang II binding ([3]; brain, 100 μM PCMB): 28100 nM
- IC50 for inhibition of 125I-SI Ang II binding ([3]; testis, 100 μM PCMB): 138000 nM

Structure (SMILES): OO [hydrogen peroxide]
- inhibition of PCMB-unmasked 125I-SI Ang II binding, primary screening (in words) [3]: did not inhibit

Structure (SMILES): [Cl][Mn][Cl] [manganese chloride]
- unmasking of specific 125I-SI Ang II binding in the absence of PCMB (in words) [2]: greater unmasking in testis compared to brain

Structure (SMILES): COC([CH2][Hg+])CNC(=O)c1ccccc1OCC(=O)O.[OH-] (stereo not shown) [mersalyl acid]
- inhibition of PCMB-unmasked 125I-SI Ang II binding, primary screening (in words) [3]: full inhibition
- inhibition of PCMB unmasking of 125I-SI Ang II binding, primary screening [3, 5]: more than 50%
- IC50's for inhibition of 125I-SI Ang II binding ([3]; brain and testis, 100 μM PCMB): 1000 to 20000 nM
- IC50 for inhibition of 125I-SI Ang II binding ([3]; brain, 100 μM PCMB): 1100 nM
- IC50 for inhibition of 125I-SI Ang II binding ([3]; testis, 100 μM PCMB): 2270 nM
- unmasking of 125I-SI Ang II binding at concentrations up to 1 mM (in words) ([2]; brain and testis, absence of PCMB, data not shown): no ability to unmask; also recorded: did not unmask

From article PMC4152863 (Regulatory peptides, 2013)
